Experimental data taken from US20240408169A1 (priority 2023, published 2024).
Where two headings read alike, the source gives them in different places. *1 amine or outer side, *2 acyl side, *3 side chain or, on linkers, in order; H or OH if unused. Where a SMILES comes first, the peptide text is derived from it. Bridges are numbered along the chain shown (N, C = ends). [ ]: non-standard residue; d: D form. The star is where a group is joined. X58 = CC(C)C(=O)N1CC=C(c2ccc(Cl)cc2C[C@@H](C(=O)[*:2])N(C)[*:1])CC1; X76 = CN([C@@H](Cc1cc(Cl)ccc1-c1cnn2cccnc12)C(=O)[*:2])[*:1]; NMehhhLys(Me) = CN([C@@H](CCCCCCCN(C)[*:3])C(=O)[*:2])[*:1]; Cyclobutanecarbonyl(1-CF3) = O=C(C1(C(F)(F)F)CCC1)*; cBuCO(3,3-F2-1-CF3) = O=C(C1(C(F)(F)F)CC(F)(F)C1)*; X25 = CCOc1ncc(Cl)cc1C[C@@H](C(=O)[*:2])N(C)[*:1]; Pro(trans-4-F) = O=C(O)[C@@H]1C[C@@H](F)CN1; Gly(cPr) = N[C@H](C(=O)O)C1CC1

Key:
[1] = from (S,Z)-2-((((9H-fluoren-9-yl)methoxy)carbonyl)(methyl)amino)-9-((S)-2-((S)-2-(12-azaneyl)-N,4-dimethylpentanamido)-3-(5-chloro-2-cyclopropoxypyridin-3-yl)-N-methylpropanamido)non-4-enoic acid TFA salt; amide bond; 16-membered ring; PyBOP/HOAt/DIEA; DCM; 2.6 mM; 25.0 °C
NCI-H1048 cells = experiment: MTT proliferation assay, NCI-H1048; assay type: cell-based; settings: 5 days compound exposure, 1:3 serial dilution starting at 10 μM;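 further: Dose-response in 96-well plates over 8 or 10 concentration points, with exposure spanning 3-4 cell doublings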
CyclinB1/CDK1 = biological target: T1, CyclinB1/CDK1 (Homo sapiens, UniProt P14635); experiment: Fluorescence Polarization (FP) competitive binding assay, Cyclin B1/Cdk1;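 further: fluorescence polarization read after equilibration at room temperature, with IC50 taken from serially diluted dose-response curves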
T1 construct: purchased Eurofins, discovery 14-450

CyclinA2/CDK2 = biological target: T2, CyclinA2/CDK2 (Homo sapiens, UniProt P20248); experiment: Fluorescence Polarization (FP) competitive binding assay, Cyclin A2/Cdk2;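 further: plates equilibrated two hours at room temperature before polarization reading, IC50 fitted from eight-concentration compound titration curves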
T2 construct: purchased CRELUX Protein Services

CyclinE1/CDK2 = biological target: T3, CyclinE1/CDK2 (Homo sapiens, UniProt P24864); experiment: Fluorescence Polarization (FP) competitive binding assay, Cyclin E1/Cdk2;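 further: readings taken after two-hour equilibration at room temperature in HEPES buffer with NaCl, DTT, NP-40 and BSA, IC50 fitted from eight-concentration serial dilution series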
T3 construct: purchased Eurofins, discovery 14-475

WI-38 cells = experiment: MTT proliferation assay, WI-38; assay type: cell-based; settings: 3 days compound exposure, 1:3 serial dilution starting at 10 μM;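 further: Eight- or ten-point dilution series, with exposure length chosen to span about three to four cell doublings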
OVCAR3 cells = experiment: MTT proliferation assay, OVCAR3; assay type: cell-based; settings: 5 days compound exposure, 1:3 serial dilution starting at 10 μM;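 further: compound given as an 8- or 10-point series, one day after plating, with exposure covering roughly 3-4 cell doublings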
[2] = 10 nM Cyclin B1/Cdk1, 2 nM FAM probe; average of 2-3 independent experiments; read-out: Cyclin B FP IC50
[3] = 8 nM Cyclin A2/Cdk2, 2 nM FAM probe, average of 2-3 independent experiments, read-out: Cyclin A FP IC50
[4] = 10 nM Cyclin E1/Cdk2, 2 nM FAM probe, average of 2-3 independent experiments, read-out: Cyclin E FP IC50

Compound | GI50 (NCI-H1048 cells) [nM] | IC50 (CyclinB1/CDK1; [2]) [nM] | IC50 (CyclinA2/CDK2; [3]) [nM] | IC50 (CyclinE1/CDK2; [4]) [nM] | GI50 (WI-38 cells) [nM] | GI50 (OVCAR3 cells) [nM] | also measured
CC(C)C[C@@H]1NC(=O)[C@@H](N(C)C(=O)[C@@H](NC(=O)OC(C)(C)C)C2CC2)CC=CCCCCN(C)C(=O)[C@H](Cc2cc(F)ccc2Br)N(C)C1=O |  |  |  |  |  |  | ring closure, yield of all isomers (from C=CCCCCN(C)C(=O)[C@H](Cc1cc(F)ccc1Br)N(C)C(=O)[C@H](CC(C)C)NC(=O)[C@H](CC=C)N(C)C(=O)[C@@H](NC(=O)OC(C)(C)C)C1CC1, rcm bond, Hoveyda-Grubbs II, DCE, 6.3 mM, 70.0 °C): 67%
CCN(C(=O)OC1c2ccccc2-c2ccccc21)[C@H]1C/C=C\CCCCN(C)C(=O)[C@H](Cc2cc(Cl)cnc2OC2CC2)N(C)C(=O)[C@H](CC(C)C)NC1=O |  |  |  |  |  |  | ring closure, isolated yield [1]: 30%
CC(C)C[C@@H]1NC(=O)[C@@H](N(C)C(=O)OCC2c3ccccc3-c3ccccc32)C/C=C\CCCCN(C)C(=O)[C@H](Cc2cc(Cl)cnc2OC2CC2)N(C)C1=O |  |  |  |  |  |  | ring closure, yield of all isomers (from CC(C)C[C@H](N)C(=O)N(C)[C@@H](Cc1cc(Cl)cnc1OC1CC1)C(=O)N(C)CCCC/C=C\C[C@@H](C(=O)O)N(C)C(=O)OCC1c2ccccc2-c2ccccc21, amide bond, PyBOP/HOAt/DIPEA, DCM, 2.57 mM, 25.0 °C): 30%
CC(C)C[C@@H]1NC(=O)[C@@H](N(C)C(=O)[C@@H](NC(=O)[C@@H]2C[C@@H](F)CN2C(=O)C2(C(F)(F)F)CC(F)(F)C2)C2CC2)CCCCCCCN(C)C(=O)[C@H](Cc2cc(Cl)ccc2C2=CCN(C(=O)C(C)C)CC2)N(C)C1=O [Example 143] ({cBuCO(3,3-F2-1-CF3)}-[Pro(trans-4-F)][Gly(cPr)][NMehhhLys(Me)]L[X58]; lactam 3-C) | 10 | 20 | 20 | 940 | 5180 | 20 | 
CCOc1ncc(Cl)cc1C[C@H]1C(=O)N(C)CCCCCCC[C@H](N(C)C(=O)[C@@H](NC(=O)[C@@H]2C[C@@H](F)CN2C(=O)C2(C(F)(F)F)CCC2)C2CC2)C(=O)N[C@@H](CC(C)C)C(=O)N1C [Example 227] ({Cyclobutanecarbonyl(1-CF3)}-[Pro(trans-4-F)][Gly(cPr)][NMehhhLys(Me)]L[X25]; lactam 3-C) | 20 |  |  |  | 14100 | 40 | IC50 (CyclinB1/CDK1; read-out: Cyclin B FP IC50; 10 nM Cyclin B1/Cdk1, 2 nM FAM probe; average of 2-3 independent experiments): 20 nM; IC50 (CyclinA2/CDK2): 30 nM; IC50 (CyclinE1/CDK2): 120 nM
CC(C)C[C@@H]1NC(=O)[C@@H](N(C)C(=O)[C@@H](NC(=O)[C@@H]2C[C@@H](F)CN2C(=O)C2(C(F)(F)F)CC(F)(F)C2)C2CC2)CCCCCCCN(C)C(=O)[C@H](Cc2cc(Cl)ccc2-c2cnn3cccnc23)N(C)C1=O [Example 297] ({cBuCO(3,3-F2-1-CF3)}-[Pro(trans-4-F)][Gly(cPr)][NMehhhLys(Me)]L[X76]; lactam 3-C) | 20 | 20 | 40 | 1270 | 9150 | 30 | 
COCCn1cc(-c2ccc(Cl)cc2C[C@H]2C(=O)NCCCCC=CC[C@H](N(C)C(=O)[C@@H](NC(=O)[C@@H]3C[C@@H](F)CN3C(=O)C3(C(F)(F)F)CC(F)(F)C3)C3CC3)C(=O)N[C@@H](CC(C)C)C(=O)N2C)cn1 [Example 43] | 30 | 20 | 40 | 370 | 8570 | 40 | 
Cc1nnc(-c2ccc(Cl)cc2C[C@H]2C(=O)N(C)CCCCC=CC[C@H](N(C)C(=O)[C@@H](NC(=O)[C@@H]3C[C@@H](F)CN3C(=O)C3(C(F)(F)F)CCC3)C3CC3)C(=O)N[C@@H](CC(C)C)C(=O)N2C)o1 [Example 115] | 70 | 20 | 40 | 170 | 11000 | 60 | 
